The text below walks through data of the METLIN SMRT retention time set (Domingo-Almenara et al. 2019).

The structures appear in SMILES notation.

The nature of this series: gradient 5% acetonitrile 3 min, to 50% in 2 min, to 85% in 15 min, held 3 min, 100 µL/min. As to conditions: column: Zorbax Extend-C18 2.1 x 50 mm; eluents: water / acetonitrile, 0.1% formic acid. The gist of the method:
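In both positive and negative ionization mode, a quadrupole time-of-flight mass spectrometer coupled to HPLC analyzed pure standards run in mixtures of ~100 molecules. The Zorbax Extend-C18 column (2.1 × 50 mm, 1.8 μm) was operated at 100 μL/min with water and acetonitrile, each containing 0.1% formic acid. The dead volume was 40 μL and the dwell volume 900 μL. Retention time came from adduct peaks that were computationally picked and individually inspected by hand.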
Compound `Cc1nn(-c2nc(CC(=O)Nc3nc(-c4ccccc4)cs3)cs2)c(C)c1Cc1ccccc1` registered an RP-LC retention time of 1380 s.

`CC(C)c1ccc(-n2ccnc(NC(=O)Nc3ccc(F)cc3)c2=O)cc1` displayed an RP-LC retention time of 1100 s.

Compound `CC1=C(c2cccc(Cl)c2)S(=O)(=O)N=C1N1CCCN(C(=O)CC(C)C)CC1` yielded an RP-LC retention time of 868 s.

Compound `CCN1CCCn2cc(S(=O)(=O)Nc3ccc(Cl)cc3F)cc2C1=O` displayed an RP-LC retention time of 763 s.

As to `COc1ccc(Cc2nc(-c3ccc4nnc(C)n4c3)no2)cc1OC`, the RP-LC retention time stood at 724 s.

Consider `O=C1CC(NS(=O)(=O)c2ccc(Br)s2)CN1` (stereo not given), for which the RP-LC retention time was determined as 630 s.

Consider `O=C(c1cc2ccccc2[nH]1)N1CCN2CCS(=O)(=O)N(C3CC3)C(=O)C2C1` (stereo not given), for which the RP-LC retention time worked out at 780 s.

Compound `Cc1nc(-c2cccc(NC(=O)Cc3csc(Nc4ncccn4)n3)c2)cs1` returned an RP-LC retention time of 731 s.

`Cc1ccc(S(=O)(=O)NC(c2nc(-c3ccc(-c4csc(C)n4)cc3)no2)C(C)C)cc1` (stereo not given): the RP-LC retention time was 1160 s.

In turn, `Cc1cc(C)cc(NC(=O)N(C)CC2CCOC2)c1` (stereo not given) registered an RP-LC retention time of 743 s.

As for `NCCC1CCN(C(=O)Nc2ccc(F)cc2F)CC1`, the RP-LC retention time worked out at 585 s.

Turning to `COc1ccc(-c2nc(-c3cccc(-c4ccn[nH]4)c3)no2)c(C)c1`, the RP-LC retention time is 1060 s.

Compound `COCCNC(=O)N1CCN(c2ncccc2-c2nnc(C(C)C)o2)CC1` yielded an RP-LC retention time of 627 s.

On to `Cc1cc(OCC(=O)NCc2ccc(Cl)cc2)nc(N2CCN(c3ccccc3)CC2)n1`, for which the RP-LC retention time was found to be 868 s.

`CS(=O)(=O)N1CCCc2cc(C(=O)NCCC3=CCCCC3)ccc21` showed an RP-LC retention time of 935 s.

Compound `O=C(NCCCN1CCc2ccccc2C1)c1c(OCC2CC2)cc(=O)n2c1CCCCC2` came in with an RP-LC retention time of 566 s.

As for `Cc1ccc(NS(=O)(=O)c2cc(-c3[nH]ncc3C(=O)N3CCCC3)oc2C)cc1Cl`, the RP-LC retention time was found to be 803 s.

On to `Cc1cccc(S(=O)(=O)Nc2cc(-c3cn4ccc(C)cc4n3)ccc2C)c1`, for which the RP-LC retention time was 704 s.

Consider `CCNC(=O)N1CCc2c(c(-c3nc(Cc4ccccc4)no3)nn2C)C1`, for which the RP-LC retention time was 742 s.

`CC(C)CCNC(=O)C1(C)Cn2nc(C(=O)NCc3ccccc3)cc2C(=O)N1C` (stereo not given) gave an RP-LC retention time of 712 s.

With `Cc1ccc(CNC(=O)C2(C)CCCN(C(=O)Nc3ccc(Br)cc3)C2)cc1` (stereo not given), the RP-LC retention time stood at 1040 s.

Compound `O=C(CN1C(=O)COc2ccccc21)N1CCSCC1` returned an RP-LC retention time of 712 s.

With `Cc1cc(N2CCN(C)CC2)nc2ccc(NC(=S)NCc3cccs3)cc12`, the RP-LC retention time came to 576 s.

Compound `COC(=O)c1cc(OCC(=O)NC2CCCCC2)c2cc(OC)ccc2n1` showed an RP-LC retention time of 791 s.

With `CCN1CCCC1CNC(=O)CN1C(=O)C2CCCCN2c2ccc(C(=O)N(C)C)cc21` (stereo not given), the RP-LC retention time was 596 s.

`COC(=O)c1ccc(NC(=O)c2ccc(-n3ccnc3C)nn2)cc1` gave an RP-LC retention time of 561 s.

`CCCCC(SC1=Nc2ccccc2C2=NC(Cc3c[nH]c4ccccc34)C(=O)N12)C(=O)OCC` (stereo not given): the RP-LC retention time turned out to be 1110 s.

For the compound `COc1ccccc1-c1noc(C2CCCN2C(=O)Nc2ccc(F)c(Cl)c2)n1` (stereo not given), the RP-LC retention time was determined as 942 s.

For `Nc1cccc(-c2nccnc2N2CCCC2)c1`, the RP-LC retention time worked out at 595 s.

Take `Cc1ncsc1CN1CCC2(CC1)c1[nH]c3ccccc3c1CCN2C`: the RP-LC retention time turned out to be 538 s.

In the case of `O=S(=O)(c1ccc(-c2csc(Nc3ccc(Cl)cc3)n2)cc1)N1CCOCC1`, the RP-LC retention time was 1080 s.

`CC(C)N1CCN(C(=O)c2cc(-c3ccccc3)n[nH]2)CC1` yielded an RP-LC retention time of 589 s.

`COc1ccc(-c2cc(C(=O)Nc3ccc(Cl)cc3)nn2C2CCS(=O)(=O)C2)cc1` (stereo not given) yielded an RP-LC retention time of 1020 s.

In turn, `Cc1ccc(S(=O)(=O)N2CCC3(CC2)NCCN=C3NCc2ccccc2)c(C)c1` yielded an RP-LC retention time of 739 s.

`Cc1ccc(S(=O)(=O)N2CC3CN(C(=O)COCc4ccccc4)CC(C2)O3)cc1` returned an RP-LC retention time of 849 s.

`Cc1ccc(-c2noc(C3CCCN3C(=O)CNS(=O)(=O)c3ccc(Cl)cc3)n2)cc1` (stereo not given) showed an RP-LC retention time of 1030 s.

`CN(CC1CCCO1)S(=O)(=O)c1ccc(C(=O)Nc2ccc3sccc3c2)cc1` (stereo not given) yielded an RP-LC retention time of 891 s.

Turning to `CSc1ccc(-c2nc3ccc(Cl)cn3c2NC2CCCCC2)cc1`, the RP-LC retention time came out at 926 s.

`Cc1nc(-n2nc(C)c(Cl)c2C)sc1C(=O)N1CCCCC1` yielded an RP-LC retention time of 1200 s.

`CCCC(=O)Nc1ccc2c(c1)CN(C(=O)c1ccc(C)cc1C)C(C(=O)N(C)C)C2` (stereo not given): the RP-LC retention time is 760 s.

As for `COc1ccc(NC(=O)c2cn3c(n2)CSCC3)cc1Cl`, the RP-LC retention time came to 737 s.

`Cc1cccc(N2CCN(c3cc(C)nc4c(-c5ccccc5)cnn34)CC2)n1` gave an RP-LC retention time of 738 s.

`Cc1cccc(C)c1N1CC(c2nc3ccccc3n2CC(=O)N2CCOCC2)CC1=O` (stereo not given) came in with an RP-LC retention time of 652 s.

As for `Cc1ccc(-c2cc3c(=O)n(CC(O)c4ccc(C)c(C)c4)ccn3n2)c(C)c1` (stereo not given), the RP-LC retention time was 1080 s.

In turn, `CCC(C)NC(=O)N1CCc2c(c(-c3nc(Cc4ccccc4)no3)nn2C)C1` (stereo not given) registered an RP-LC retention time of 870 s.

`CCc1cccc(NC(=O)C2CCN(S(=O)(=O)c3ccc4c(c3)sc(=O)n4C(C)C)CC2)c1` showed an RP-LC retention time of 953 s.

For `CCCn1cc(C2=CCN(C(=O)NCc3ccc(C)cc3)CC2)c2cccnc21`, the RP-LC retention time came to 939 s.

For `CC(C)C(=O)N1CCC2(CC1)NCc1ccccc1-n1ccnc12`, the RP-LC retention time stood at 574 s.

As to `CC(C)Nc1nc(N2CCN(C3CCCCC3)CC2)nc2c1cnn2C`, the RP-LC retention time turned out to be 648 s.

As for `O=C(Nc1ccc(-c2nnc3n2CCCC3)cc1)c1cc(C2CC2)[nH]n1`, the RP-LC retention time is 625 s.

Take `CCOc1cccc(-c2noc(-c3nnn4c3COC(c3ccc(OC)cc3)C4)n2)c1` (stereo not given): the RP-LC retention time was determined as 1210 s.

As to `CCn1c(C)c(-c2nc(C3CC3)no2)c(S(=O)(=O)NCC(C)C)c1C`, the RP-LC retention time came to 930 s.

Compound `COc1ccc(OC)c(CNC(=O)C2CCCN(c3nccnc3Oc3ccccc3)C2)c1` (stereo not given) had an RP-LC retention time of 957 s.

Compound `COC(=O)c1ccc(-c2nc3cnccn3c2Nc2ccc(OC)cc2)cc1` registered an RP-LC retention time of 826 s.

Turning to `CNC(=O)c1cccc(Nc2c(-c3ccccc3)nc3cnccn23)c1`, the RP-LC retention time amounted to 645 s.

Take `Cc1ccc(N2CC(c3noc(C4CCC4)n3)CC2=O)cc1` (stereo not given): the RP-LC retention time came to 914 s.

`O=C(Cc1ccccc1Cl)N1CCN(c2cc(-c3ccccc3)[nH]n2)CC1` came in with an RP-LC retention time of 828 s.

In turn, `CCCn1c(=O)c2cc(C(=O)NCc3ccccc3C)nn2c2ccccc21` came in with an RP-LC retention time of 1010 s.

`Cc1nc(C2CN(S(=O)(=O)c3ccccc3C(F)(F)F)CC23CCOCC3)no1` (stereo not given): the RP-LC retention time is 892 s.

Consider `O=C(NCC(O)c1ccsc1)c1ccc2c(c1)OCO2` (stereo not given), for which the RP-LC retention time was 652 s.

In turn, `CCS(=O)(=O)Nc1ccc(C2(C(=O)NCc3ccccc3)CCCCC2)cc1` returned an RP-LC retention time of 903 s.

For the compound `Cc1ccnc(Nc2nc(-c3ccc(Cl)cc3)cs2)c1`, the RP-LC retention time is 947 s.

Take `O=C(CN1CCN(Cc2ccccc2)C1=O)N1CCN(c2ccccc2F)CC1`: the RP-LC retention time was 824 s.

In turn, `COc1ccc(-c2nc(C)cc(C)c2CNC(=O)c2ccc3c(c2)OCO3)cc1` came in with an RP-LC retention time of 632 s.

Consider `CCn1c(=O)c(=O)n(CC(=O)NCCN2CCCC2)c2cccnc21`, for which the RP-LC retention time is 559 s.

For `CC(C)NC(=O)N1CCCC(c2cccc(C(=O)NCc3ccc4c(c3)OCO4)c2)C1` (stereo not given), the RP-LC retention time is 822 s.

As for `CN(C)CCNCc1ccc(-c2cc(Cl)ccc2Cl)o1`, the RP-LC retention time was determined as 578 s.

In turn, `OCCN(Cc1ccccc1)CC(O)COc1cccc2ccccc12` (stereo not given) displayed an RP-LC retention time of 601 s.

As to `C[C@H]1CC2C3CCC4=CC(=O)C=C[C@]4(C)[C@@]3(Cl)[C@@H](O)C[C@]2(C)[C@@]1(O)C(=O)CO` (stereo not given in full), the RP-LC retention time was found to be 832 s.

`CCC(C)C(NC(=O)CCc1ccc(OC)cc1)C(=O)Nc1nc2ccccc2[nH]1` (stereo not given) returned an RP-LC retention time of 734 s.

`CCN(Cc1ccncc1)C1CN(C(=O)NCc2ccc(C)cc2)C1`: the RP-LC retention time was found to be 591 s.

On to `Cc1nc(C2CCOCC2)n(C2CCN(S(=O)(=O)c3ccccc3Cl)C2)n1` (stereo not given), for which the RP-LC retention time was 740 s.

`C=CCOc1c(CCC)cc(CCC)cc1C(N)=O`: the RP-LC retention time came to 1130 s.

Compound `O=C(CCC1CCCCC1)Nc1nc(-c2ccc3c(c2)NC(=O)CO3)cs1` showed an RP-LC retention time of 1020 s.

The compound `CCCn1c(C)cnc1C1CN(S(=O)(=O)c2ccc(C)c(Cl)c2)C1` showed an RP-LC retention time of 710 s.

As to `CCS(=O)(=O)c1cccc(-c2cc(C(=O)NC3CCN(C)CC3)c(C)c3[nH]c4ncc(C)cc4c23)c1`, the RP-LC retention time amounted to 645 s.

Regarding `CC(C)CC(=O)N1CCC2(CC1)C(=O)N(C)c1ccccc12`, the RP-LC retention time was determined as 766 s.

With `O=C(c1ccccc1Cl)N1CCN(c2cc(-c3cccs3)[nH]n2)CC1`, the RP-LC retention time was found to be 789 s.

With `CCc1ccc(Nc2nc(C(=O)NC)nc3ccccc23)cc1`, the RP-LC retention time was found to be 708 s.

On to `Cc1cccc(C)c1Nc1c(-c2ccc(N3CCOCC3)cc2)nc2cnccn12`, for which the RP-LC retention time turned out to be 755 s.
